Measured values reported in patent publication US10294202B2, “Pyrrolidinones as herbicides” (FMC Corporation, priority 2013, dated 2019).

How the values were obtained:
[1] = tested on: oat, wild; assay: Test C pre-/postemergence herbicide test; assay type: in vivo, Avena fatua; conditions: Postemergence
In short: (§1)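 Visual rating, 0 (no effect) to 100 (complete control), versus untreated controls after 13 to 15 days in the greenhouse. Pre: seeds in loam/sand, sprayed at planting. Post: 1- to 4-leaf plants (2 to 18 cm) in peat-based mix. Compounds in non-phytotoxic solvent plus surfactant.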

[2] = tested on: ragweed; assay: Test C pre-/postemergence herbicide test; assay type: in vivo, Ambrosia elatior; conditions: Postemergence
In short: as §1

[3] = tested on: rice; assay: Test B flooded paddy test; assay type: in vivo, Oryza sativa; conditions: 250 g ai/ha, Flood; scale of 0 to 100 where 0 is no effect and 100 is complete control
In short: (§2)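 Paddy-water application at a 3 cm flood, young plants having two leaves. Water level maintained; greenhouse, 13–15 days; visual 0–100 control rating.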

[4] = tested on: morningglory; assay: Test C pre-/postemergence herbicide test; assay type: in vivo, Ipomoea coccinea; conditions: for Morningglory plant response rating: scale 0 to 100, 0 is no effect and 100 is complete control
In short: as §1

[5] = tested on: waterhemp; assay: Test C pre-/postemergence herbicide test; assay type: in vivo, Amaranthus rudis; conditions: for Waterhemp plant response rating: scale 0 to 100, 0 is no effect and 100 is complete control
In short: as §1

[6] = tested on: soybean; assay: Test C pre-/postemergence herbicide test; assay type: in vivo, Glycine max; conditions: for Soybean plant response rating: scale 0 to 100, 0 is no effect and 100 is complete control
In short: as §1

[7] = tested on: barnyardgrass; assay: Test C pre-/postemergence herbicide test; assay type: in vivo, Echinochloa crus-galli; conditions: for Barnyardgrass plant response rating: scale 0 to 100, 0 is no effect and 100 is complete control
In short: as §1

[8] = tested on: sedge, umbrella; assay: Test B flooded paddy test; assay type: in vivo, Cyperus difformis; conditions: 250 g ai/ha, Flood; scale of 0 to 100 where 0 is no effect and 100 is complete control
In short: as §2

[9] = tested on: johnsongrass; assay: Test C pre-/postemergence herbicide test; assay type: in vivo, Sorghum halepense; conditions: for Johnsongrass plant response rating: scale 0 to 100, 0 is no effect and 100 is complete control
In short: as §1

[10] = tested on: lambsquarters; assay: Test C pre-/postemergence herbicide test; assay type: in vivo, Chenopodium album; conditions: for Lambsquarters plant response rating: scale 0 to 100, 0 is no effect and 100 is complete control
In short: as §1

[11] = tested on: corn; assay: Test A pre-/postemergence herbicide test; assay type: in vivo, Zea mays; conditions: for Corn plant response rating: Preemergence, visual rating on 0 to 100 scale (0 no effect, 100 complete control); for Corn plant response rating / Corn plant response rating (crop injury, 0 = no effect, 100 = complete kill) at 125 g/ha: 125 g ai/ha; for Corn plant response rating (crop injury, 0 = no effect, 100 = complete kill) at 125 g/ha / Corn plant response rating (crop injury, 0 = no effect, 100 = complete kill) at 500 g/ha: Zea mays, 240 h; for Corn plant response rating (crop injury, 0 = no effect, 100 = complete kill) at 125 g/ha: 100 complete control; for Corn plant response rating (crop injury, 0 = no effect, 100 = complete kill) at 500 g/ha: 500 g ai/ha
In short: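 Seeds sown in loam soil/sand blend received a preemergence directed soil spray of test chemical in non-phytotoxic solvent with surfactant; postemergence plants (2–10 cm, one- to two-leaf stage) were sprayed with the same formulation. After about 10 days in greenhouse, injury was rated visually versus untreated controls, 0 (no effect) to 100 (complete control).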

[12] = 31 g ai/ha, scale 0 (no effect) to 100 (complete control)
[13] = 62 g ai/ha, scale 0 to 100 (0 no effect, 100 complete control)
[14] = 125 g ai/ha, scale 0 to 100 (0 no effect, 100 complete control)
[15] = 250 g ai/ha, scale 0 to 100 (0 no effect, 100 complete control)
[16] = Postemergence, 31 g ai/ha, scale 0 (no effect) to 100 (complete control)
[17] = Postemergence, 62 g ai/ha, scale 0 to 100 (0 no effect, 100 complete control)
[18] = Postemergence, 125 g ai/ha, scale 0 to 100 (0 no effect, 100 complete control)
[19] = Postemergence, 250 g ai/ha, scale 0 to 100 (0 no effect, 100 complete control)
[20] = Preemergence, 62 g ai/ha, scale 0 to 100
[21] = Preemergence, 125 g ai/ha, scale 0 to 100 (0 no effect, 100 complete control)
[22] = post-emergence, Postemergence, 0 to 100 scale
[23] = post-emergence, Postemergence, 0 to 100 scale (0 no effect, 100 complete control)
[24] = pre-emergence, preemergence, 0 to 100 scale

O=C1NCC(c2ccc(C(F)(F)F)cc2)C1C(=O)Nc1ccccc1F (stereo not shown) [Compound 79, N-(2-fluorophenyl)-2-oxo-4-[4-(trifluoromethyl)phenyl]-3-pyrrolidinecarboxamide]
Plant response rating, Oat, Wild [1, 12]: 0
Plant response rating, Oat, Wild [1, 13]: 0
Plant response rating, Oat, Wild [1, 14]: 0
Plant response rating, Oat, Wild [1, 15]: 0
Plant response rating, Ragweed [2, 12]: 20
Plant response rating, Ragweed [2, 13]: 20
Plant response rating, Ragweed [2, 14]: 20
Plant response rating, Ragweed [2, 15]: 45
Plant response rating, Rice [3]: 0
Plant response rating, Morningglory [4, 16]: 0
Plant response rating, Morningglory [4, 17]: 0
Plant response rating, Morningglory [4, 18]: 5
Plant response rating, Morningglory [4, 19]: 5
Morningglory plant response rating ([4]; Preemergence, 31 g ai/ha): 0
Plant response rating, Morningglory [4, 20]: 0
Plant response rating, Morningglory [4, 21]: 0
Plant response rating (scale of 0 to 100), Morningglory ([4]; Preemergence, 250 g ai/ha): 0
Plant response rating, Waterhemp [5, 16]: 10
Plant response rating, Waterhemp [5, 17]: 10
Plant response rating, Waterhemp [5, 18]: 10
Plant response rating, Waterhemp [5, 19]: 30
Waterhemp plant response rating ([5]; Preemergence, 31 g ai/ha): 25
Plant response rating, Waterhemp [5, 20]: 40
Plant response rating, Waterhemp [5, 21]: 80
Plant response rating (scale of 0 to 100), Waterhemp ([5]; Preemergence, 250 g ai/ha): 85
Plant response rating, Soybean [6, 16]: 0
Plant response rating, Soybean [6, 17]: 0
Plant response rating, Soybean [6, 18]: 10
Plant response rating, Soybean [6, 19]: 10
Soybean plant response rating ([6]; Preemergence, 31 g ai/ha): 0
Plant response rating, Soybean [6, 20]: 0
Plant response rating, Soybean [6, 21]: 0
Plant response rating (scale of 0 to 100), Soybean ([6]; Preemergence, 250 g ai/ha): 0
Plant response rating, Barnyardgrass [7, 16]: 0
Plant response rating, Barnyardgrass [7, 17]: 0
Plant response rating, Barnyardgrass [7, 18]: 35
Plant response rating, Barnyardgrass [7, 19]: 60
Barnyardgrass plant response rating ([7]; Preemergence, 31 g ai/ha): 40
Plant response rating, Barnyardgrass [7, 20]: 95
Plant response rating, Barnyardgrass [7, 21]: 95
Plant response rating (scale of 0 to 100; 0 is no effect, 100 is complete control), Barnyardgrass ([7]; Preemergence, 250 g ai/ha): 98
Plant response rating, Sedge, Umbrella [8]: 0
Plant response rating, Johnsongrass [9, 16]: 0
Plant response rating, Johnsongrass [9, 17]: 0
Plant response rating, Johnsongrass [9, 18]: 0
Plant response rating, Johnsongrass [9, 19]: 5
Johnsongrass plant response rating ([9]; Preemergence, 31 g ai/ha): 0
Plant response rating, Johnsongrass [9, 20]: 0
Plant response rating, Johnsongrass [9, 21]: 10
Plant response rating (scale of 0 to 100), Johnsongrass ([9]; Preemergence, 250 g ai/ha): 10
Plant response rating, Lambsquarters [10, 16]: 25
Plant response rating, Lambsquarters [10, 17]: 50
Plant response rating, Lambsquarters [10, 18]: 85
Plant response rating, Lambsquarters [10, 19]: 85
Lambsquarters plant response rating ([10]; Preemergence, 31 g ai/ha): 90
Plant response rating, Lambsquarters [10, 20]: 90
Plant response rating, Lambsquarters [10, 21]: 90
Plant response rating (scale of 0 to 100), Lambsquarters ([10]; Preemergence, 250 g ai/ha): 90
Corn plant response rating [11]: 0
Corn plant response rating (crop injury, 0 = no effect, 100 = complete kill) at 125 g/ha [11, 22]: 20%
Corn plant response rating (crop injury, 0 = no effect, 100 = complete kill) at 500 g/ha [11, 23]: 70%
Corn plant response rating (crop injury, 0 = no effect, 100 = complete kill) at 500 g/ha [11, 24]: 0%

O=C1NCC(c2ccc(C(F)(F)F)cc2)C1C(=O)Nc1cccc(F)c1F (stereo not shown) [Compound 80, N-(2,3-difluorophenyl)-2-oxo-4-[4-(trifluoromethyl)phenyl]-3-pyrrolidinecarboxamide]
Plant response rating, Oat, Wild [1, 12]: 0
Plant response rating, Oat, Wild [1, 13]: 0
Plant response rating, Oat, Wild [1, 14]: 0
Plant response rating, Oat, Wild [1, 15]: 0
Plant response rating, Ragweed [2, 12]: 30
Plant response rating, Ragweed [2, 13]: 30
Plant response rating, Ragweed [2, 14]: 30
Plant response rating, Ragweed [2, 15]: 30
Plant response rating, Rice [3]: 0
Plant response rating, Morningglory [4, 16]: 0
Plant response rating, Morningglory [4, 17]: 5
Plant response rating, Morningglory [4, 18]: 5
Plant response rating, Morningglory [4, 19]: 5
Morningglory plant response rating ([4]; Preemergence, 31 g ai/ha): 0
Plant response rating, Morningglory [4, 20]: 0
Plant response rating, Morningglory [4, 21]: 20
Plant response rating (scale of 0 to 100), Morningglory ([4]; Preemergence, 250 g ai/ha): 20
Plant response rating, Waterhemp [5, 16]: 30
Plant response rating, Waterhemp [5, 17]: 45
Plant response rating, Waterhemp [5, 18]: 45
Plant response rating, Waterhemp [5, 19]: 65
Waterhemp plant response rating ([5]; Preemergence, 31 g ai/ha): 15
Plant response rating, Waterhemp [5, 20]: 80
Plant response rating, Waterhemp [5, 21]: 90
Plant response rating (scale of 0 to 100), Waterhemp ([5]; Preemergence, 250 g ai/ha): 90
Plant response rating, Soybean [6, 16]: 0
Plant response rating, Soybean [6, 17]: 5
Plant response rating, Soybean [6, 18]: 5
Plant response rating, Soybean [6, 19]: 25
Soybean plant response rating ([6]; Preemergence, 31 g ai/ha): 0
Plant response rating, Soybean [6, 20]: 0
Plant response rating, Soybean [6, 21]: 0
Plant response rating (scale of 0 to 100), Soybean ([6]; Preemergence, 250 g ai/ha): 0
Plant response rating, Barnyardgrass [7, 16]: 0
Plant response rating, Barnyardgrass [7, 17]: 20
Plant response rating, Barnyardgrass [7, 18]: 35
Plant response rating, Barnyardgrass [7, 19]: 70
Barnyardgrass plant response rating ([7]; Preemergence, 31 g ai/ha): 85
Plant response rating, Barnyardgrass [7, 20]: 95
Plant response rating, Barnyardgrass [7, 21]: 95
Plant response rating (scale of 0 to 100; 0 is no effect, 100 is complete control), Barnyardgrass ([7]; Preemergence, 250 g ai/ha): 95
Plant response rating, Sedge, Umbrella [8]: 0
Plant response rating, Johnsongrass [9, 16]: 5
Plant response rating, Johnsongrass [9, 17]: 5
Plant response rating, Johnsongrass [9, 18]: 5
Plant response rating, Johnsongrass [9, 19]: 10
Johnsongrass plant response rating ([9]; Preemergence, 31 g ai/ha): 0
Plant response rating, Johnsongrass [9, 20]: 0
Plant response rating, Johnsongrass [9, 21]: 30
Plant response rating (scale of 0 to 100), Johnsongrass ([9]; Preemergence, 250 g ai/ha): 55
Plant response rating, Lambsquarters [10, 16]: 55
Plant response rating, Lambsquarters [10, 17]: 55
Plant response rating, Lambsquarters [10, 18]: 60
Plant response rating, Lambsquarters [10, 19]: 70
Lambsquarters plant response rating ([10]; Preemergence, 31 g ai/ha): 40
Plant response rating, Lambsquarters [10, 20]: 85
Plant response rating, Lambsquarters [10, 21]: 90
Plant response rating (scale of 0 to 100), Lambsquarters ([10]; Preemergence, 250 g ai/ha): 90
Corn plant response rating [11]: 0
Corn plant response rating (crop injury, 0 = no effect, 100 = complete kill) at 125 g/ha [11, 22]: 30%
Corn plant response rating (crop injury, 0 = no effect, 100 = complete kill) at 500 g/ha [11, 23]: 60%
Corn plant response rating (crop injury, 0 = no effect, 100 = complete kill) at 500 g/ha [11, 24]: 0%
